From patent US8722715B2, “Antimicrobial oxazolidinone, hydantoin and imidazolidinone compositions” (NovaBay Pharmaceuticals, priority 2008, dated 2014)

Tests used:
Type in all cases: cell-based
[1] = system: Escherichia coli (ATCC 25922); assay: Antimicrobial activity, MBC, E. coli ATCC 25922; conditions: 1 h at room temperature
Procedure: (§1) To determine antimicrobial activity of compounds of the present disclosure, Escherichia coli (ATCC 25922), Staphylococcus aureus (ATCC 29213), Pseudomonas aeruginosa (ATCC 27853), and Candida albicans (ATCC 10231) were used in primary screening. In addition, Escherichia coli (MCC 80392), Staphylococcus aureus (MCC 91731), Pseudomonas aeruginosa (MCC 4438), and Candida albicans (MCC 50319), provided by Alcon Laboratories, Fort Worth, Tex., were used. The microbial cultures were diluted in sterile saline pH 4 to prepare inocula. Test compounds were titrated by stepwise two-fold dilutions in sterile saline pH 4. A total of 1.0×10^5 to 1.0×10^6 Colony Forming Units (CFU)/mL microbe was added to each tube, mixed by gentle vortexing, and then incubated at room temperature for 1 h. Microbial plating on Petri dishes (Tryptic Soy agar or Saboraud's Dextrose agar) was performed immediately after the designated exposure after neutralization of the test article dilutions in Dey-Engley Broth. Plates were incubated at 37° C., and the numbers of microbes were counted by direct colony count to quantitate the surviving microbes as CFU/mL. Positive growth controls were made with sterile 0.9% saline. Compounds were dissolved in unbuffered isotonic saline (SAL) or phosphate buffered saline (PBS) at pH 4 or pH 7 (using HCl and/or NaOH as needed). All compounds were tested three times. The results are tabulated to show the comparison of antimicrobial effectiveness range of the compounds. Data shown are the Minimum Bactericidal Concentration (MBC) or Minimum Fungicidal Concentration (MFC) (≧99.9% kill) in μg/mL.

[2] = system: Candida albicans (ATCC 10231); assay: Antimicrobial activity, MFC, C. albicans ATCC 10231; conditions: 1 h at room temperature
Procedure: as §1

[3] = system: Staphylococcus aureus (ATCC 29213); assay: Antimicrobial activity, MBC, S. aureus ATCC 29213; conditions: 1 h at room temperature
Procedure: as §1

[4] = system: Candida albicans (MCC 50319); assay: Antimicrobial activity, MFC, C. albicans MCC 50319; conditions: 1 h at room temperature
Procedure: as §1, with “The results are tabulated to show the comparison of antimicrobial effectiveness range of the compounds. Data shown are the Minimum Bactericidal Concentration (MBC) or Minimum Fungicidal Concentration (MFC) (≧99.9% kill) in μg/mL.” left out

[5] = system: Pseudomonas aeruginosa (ATCC 27853); assay: Antimicrobial activity, MBC, P. aeruginosa ATCC 27853; conditions: pH 7 (PBS), 1 h at room temperature
Procedure: as §1, with “The results are tabulated to show the comparison of antimicrobial effectiveness range of the compounds. Data shown are the Minimum Bactericidal Concentration (MBC) or Minimum Fungicidal Concentration (MFC) (≧99.9% kill) in μg/mL.” left out

[6] = system: Staphylococcus aureus (MCC 91731); assay: Antimicrobial activity, MBC, S. aureus MCC 91731; conditions: 1 h at room temperature
Procedure: as §1, with “The results are tabulated to show the comparison of antimicrobial effectiveness range of the compounds. Data shown are the Minimum Bactericidal Concentration (MBC) or Minimum Fungicidal Concentration (MFC) (≧99.9% kill) in μg/mL.” left out

[7] = system: mouse fibroblast cells (ATCC CCL-1, L929); assay: Cytotoxicity, WST-8 colorimetric assay; conditions: pH 4 (Sal), 60 min exposure, WST-8 read after 18-20 hours
Procedure: Cytotoxicity is assessed by a colorimetric assay system using the Dojindo™ cell counting kit containing 2-(2-methoxy-4-nitrophenyl)-3-(4-nitrophenyl)-5-(2,4-disulfophenyl)-2H-tetrazolium, monosodium salt (WST-8). In this assay, the WST-8 reagent is bioreduced by cellular dehydrogenases to a formazan product that is highly soluble in tissue culture medium. The orange formazan, which is produced only by live cells, is a direct measure of cell viability and can be read spectrophotometrically (e.g., evaluation of a soluble tetrazolium/formazan assay for cell growth and drug sensitivity in culture using human and other tumor cell lines is described by D. A. Scudiero et al., Cancer Res., 48(17), 4827-33 (1988). Similar approaches for determining the cell viability are known in the art.
In a standard assay, mouse fibroblast cells (ATCC CCL-1, L929), are cultured in Minimum Essential Medium, α-medium supplemented with 10% heat inactivated fetal bovine serum, L-glutamine, penicillin and streptomycin. Cells are trypsinized and counted under the microscope and seeded at 1.5×10^4 total cells per 100 μL per well of a flat-bottom 96-well plate in order to achieve ˜80% confluence after overnight incubation at 37° C. […]
Test articles were prepared as 2-fold serial dilutions and 170 μL of each dilution was added into each of 4-wells (total volume per well=200 μL). […] Absorbance was read at 450 nm with reference wavelength at 750 nm using Molecular Device SpectraMax M5 plate reader. […]
The CT50 value for each compound was calculated from the absorbance values (A450/750) and is defined as the concentration of test article that results in survival of 50% of the cells following treatment. The absorbance A450/750 from each well of untreated cells and from each well within the dilution series was measured. […] Next, a non-linear regression (curve fit) analysis was performed on all the absorbance data measured from the dilution series, including the absorbance data obtained from wells of the untreated control cells. […]

[8] = system: Escherichia coli (MCC 80392); assay: Antimicrobial activity, MBC, E. coli MCC 80392; conditions: 1 h at room temperature
Procedure: as §1, with “The results are tabulated to show the comparison of antimicrobial effectiveness range of the compounds. Data shown are the Minimum Bactericidal Concentration (MBC) or Minimum Fungicidal Concentration (MFC) (≧99.9% kill) in μg/mL.” left out

With “2-(3-Chloro-4,4-dimethyl-2,5-dioxoimidazolidin-1-yl)-N,N,N-trimethylethanaminium chloride [Compound 22-48]” the “Minimum Bactericidal Concentration (MBC) (≧99.9% kill)” value ([1]; pH 4 (Sal)) was 128 µg/mL, the “Minimum Bactericidal Concentration (MBC) (≧99.9% kill)” value ([1]; pH 7 (PBS)) was 4 µg/mL and the “Minimum Fungicidal Concentration (MFC) (≧99.9% kill)” value ([2]; pH 4 (Sal)) was 1024 µg/mL. The “Minimum Fungicidal Concentration (MFC) (≧99.9% kill)” value ([2]; pH 7 (PBS)) was 128 µg/mL, the “Minimum Bactericidal Concentration (MBC) (≧99.9% kill)” value ([3]; pH 4 (Sal)) was >128 µg/mL and the “Minimum Bactericidal Concentration (MBC) (≧99.9% kill)” value ([3]; pH 7 (PBS)) was 16 µg/mL.
`CC1(CS(=O)(=O)O)COC(=O)N1Cl` (centres unmarked) [Compound 22-01, (3-chloro-4-methyl-2-oxooxazolidin-4-yl)methanesulfonic acid] was tested, and the “Minimum Bactericidal Concentration (MBC) (≧99.9% kill)” value ([1]; pH 4 (Sal)) was 256 µg/mL, the “Minimum Bactericidal Concentration (MBC) (≧99.9% kill)” value ([1]; pH 7 (PBS)) was 128 µg/mL and the “Minimum Fungicidal Concentration (MFC) (≧99.9% kill)” value ([2]; pH 4 (Sal)) was >512 µg/mL. For the same compound, the “Minimum Fungicidal Concentration (MFC) (≧99.9% kill)” value ([2]; pH 7 (PBS)) was 1024 µg/mL, the “Minimum Bactericidal Concentration (MBC) (≧99.9% kill)” value ([3]; pH 4 (Sal)) was 256 µg/mL and the “Minimum Bactericidal Concentration (MBC) (≧99.9% kill)” value ([3]; pH 7 (PBS)) was 256 µg/mL. The “Minimum Fungicidal Concentration (MFC) (≧99.9% kill)” value ([4]; pH 4 (Sal)) was 128 µg/mL, the “Minimum Fungicidal Concentration (MFC) (≧99.9% kill)” value ([4]; pH 7 (PBS)) was 128 µg/mL and the “Minimum Bactericidal Concentration (MBC) (≧99.9% kill)” value [5] was 256 µg/mL. The “Minimum Bactericidal Concentration (MBC) (≧99.9% kill)” value ([6]; pH 4 (Sal)) was 16 µg/mL, the “Minimum Bactericidal Concentration (MBC) (≧99.9% kill)” value ([6]; pH 7 (PBS)) was 16 µg/mL and the “CT50 (concentration of test article that results in survival of 50% of the cells)” value [7] was 1.1 mM. The “Minimum Bactericidal Concentration (MBC) (≧99.9% kill)” value ([8]; pH 4 (Sal)) was 2 µg/mL and the “Minimum Bactericidal Concentration (MBC) (≧99.9% kill)” value ([8]; pH 7 (PBS)) was 16 µg/mL.
In the case of `CC1(C[N+](C)(C)C)COC(=O)N1Cl.[Cl-]` (centres unmarked) [Compound 22-04, 1-(3-Chloro-4-methyl-2-oxooxazolidin-4-yl)-N,N,N-trimethylmethanaminium chloride], the “Minimum Bactericidal Concentration (MBC) (≧99.9% kill)” value ([1]; pH 4 (Sal)) is reported as 16 µg/mL, the “Minimum Fungicidal Concentration (MFC) (≧99.9% kill)” value ([2]; pH 4 (Sal)) is reported as >256 µg/mL and the “Minimum Bactericidal Concentration (MBC) (≧99.9% kill)” value ([3]; pH 4 (Sal)) is reported as 64 µg/mL.
For `CN1C(=O)N(Cl)C(C)(C[N+](C)(C)C)C1=O.[Cl-]` (centres unmarked) [Compound 22-27, 1-(3-chloro-1,4-dimethyl-2,5-dioxoimidazolidin-4-yl)-N,N,N-trimethylmethanaminium chloride], the “Minimum Bactericidal Concentration (MBC) (≧99.9% kill)” value ([1]; pH 4 (Sal)) was 16 µg/mL, the “Minimum Fungicidal Concentration (MFC) (≧99.9% kill)” value ([2]; pH 4 (Sal)) was >256 µg/mL and the “Minimum Bactericidal Concentration (MBC) (≧99.9% kill)” value ([3]; pH 4 (Sal)) was 64 µg/mL.
For `C[N+]1(C)CCC2(CC1)CN(Cl)C(=O)O2.[Cl-]` [Compound 22-36, 3-chloro-8,8-dimethyl-2-oxo-1-oxa-3-aza-8-azoniaspiro[4.5]decane chloride], the “Minimum Bactericidal Concentration (MBC) (≧99.9% kill)” value ([1]; pH 4 (Sal)) was 256 µg/mL, the “Minimum Bactericidal Concentration (MBC) (≧99.9% kill)” value ([1]; pH 7 (PBS)) was 16 µg/mL and the “Minimum Fungicidal Concentration (MFC) (≧99.9% kill)” value ([2]; pH 7 (PBS)) was 256 µg/mL. For the same compound, the “Minimum Bactericidal Concentration (MBC) (≧99.9% kill)” value ([3]; pH 4 (Sal)) was 512 µg/mL, the “Minimum Bactericidal Concentration (MBC) (≧99.9% kill)” value ([3]; pH 7 (PBS)) was 32 µg/mL and the “CT50 (concentration of test article that results in survival of 50% of the cells)” value [7] was 0.7 mM.
For `CC[N+](C)(C)CC1(C)COC(=O)N1Cl.[Cl-]` (centres unmarked) [Compound 22-38, N-((3-chloro-4-methyl-2-oxooxazolidin-4-yl)methyl)-N,N-dimethylethanaminium chloride], the “Minimum Bactericidal Concentration (MBC) (≧99.9% kill)” value ([1]; pH 4 (Sal)) was 16 µg/mL, the “Minimum Bactericidal Concentration (MBC) (≧99.9% kill)” value ([1]; pH 7 (PBS)) was 2 µg/mL and the “Minimum Fungicidal Concentration (MFC) (≧99.9% kill)” value ([2]; pH 7 (PBS)) was 8 µg/mL. The “Minimum Bactericidal Concentration (MBC) (≧99.9% kill)” value ([3]; pH 4 (Sal)) was 64 µg/mL, the “Minimum Bactericidal Concentration (MBC) (≧99.9% kill)” value ([3]; pH 7 (PBS)) was 4 µg/mL and the “CT50 (concentration of test article that results in survival of 50% of the cells)” value [7] was 0.86 mM.
